Here are results for seven molecules from patent publication US7105573B2, “Methods and compositions for the treatment of alopecia and other disorders of the pilosebaceous apparatus” (Orentreich Foundation for the Advancement of Science, Inc., priority 2000, dated 2006).

Where a name gives a salt, the structure may show the parent alone. Read-outs that look alike come from different tables or passages of the source.

How the values of data set [1] were obtained: For production of the test materials described herein, it is dissolved in water to twice the desired final concentration, then mixed with an equal volume of a solution of 4% butylene glycol in special denatured alcohol (SDA) for a final concentration of 50% SDA and 2% butylene glycol. […] Preferred concentrations are about 0.8% to about 2.0%.
(§1) If more neutral solutions are required, a penetration enhancing agent should be used to help deliver the drug to the dermis. […] Some, like dimethylsulfoxide (DMSO), are applied to the skin for 10–15 minutes prior to administration of the drug, while others, such as myristylamine oxide (MAO), SEPA and N-methyl pyrrolidone (NMP), can be added to the inventive composition in the appropriate concentration before applying to the skin.
It is important to remove the salts that are produced during this process. Therefore, the mixture is lyophilized, and the dry powder reconstituted in absolute ethanol.

The procedure of data set [2]:
as §1
The source holds these as a separate data set.

The nature of data set [3]: Skin irritation of metformin base and salts in 50% SDA / 2% butylene glycol vehicle. It is filed as in vivo. The settings on record: applied in 50% SDA, 2% butylene glycol in water.
The subject of data set [4] is age-dependent hair loss in female ob/ob (obese) mice. Kind of data set: Oral metformin hydrochloride and age-dependent hair loss in female ob/ob mice (Example 5). The data set is classed as in vivo. The text has this:
Twenty-one female C57BL/6J ob/ob mice were purchased from the Jackson Laboratory (Bar Harbour, Me.) at five weeks of age. […] Dosages were adjusted on a weekly basis to reflect changes observed in body weight. All animals were group housed and were allowed access to standard laboratory chow and water ad libitum. The progression of hair loss was documented throughout the study.

Data set [5] has as its system skin of the hairless mouse. Kind of data set: Skin redness in hairless mouse, 11 days of treatment. The conditions noted are these: 50 μL, 2× per day. The data set is classed as in vivo.
In data set [6] the test system is hair loss in aged female obese (C57BL/6J-ob/ob) mice. The experiment in a line: Oral metformin and hair loss in aged female obese mice (Example 1). It is filed as in vivo. Here is the method:
The objective of the experiments in this Example is to examine the effects of the biguanide […] metformin on hair loss in aged female obese (C57BL/6J-ob/ob) mice. The hypothesis tested is that metformin, when administered in these mice at a relatively young age, will increase insulin sensitivity, thereby preventing or slowing the progression of hair loss.
Animals: Female C57BL/6J Lep , ob/ob. (homozygous) and C57BL/6J Lep <ob/+> (heterozygous) mice are purchased from the Jackson Laboratory (Bar Harbor, Me.). All animals are housed at a density of 2–3 animals per cage and are maintained on a photoperiod of 12 h light: 12 h dark. Food and water are provided ad libitum.
The dosage is adjusted each week to reflect changes in body weight. Since the animals are group housed, the adjustment is made based on the mean weight of the treatment group, rather than on an animal-to-animal basis. The water is changed twice per week. Periodically the concentration of the metformin in the drinking water is verified by HPLC.
Experimental groups: The ob/+ animals are not entered into the study until two weeks after the ob/ob mice. […] Thus, once the ob/+ are 7 weeks of age, they are entered in the study.
Parameters monitored: Body weight, food and water consumption are monitored twice per week. Blood samples are collected from the orbital sinus of unanesthesized mice at the baseline and on a monthly basis for the duration of the study. These blood collections are designed to monitor serum glucose and insulin levels. C-peptide and insulin-like growth factor 1 (IGF-1) are also monitored periodically throughout the study. Blood samples for C-peptide analysis are collected following an overnight fast. Selected animals are photographed throughout the study to document the slowing or progression of hair loss.

Data set [7] concerns alopecic female ob/ob mice. Kind of data set: Topical biguanide / metformin hair growth in obese (ob/ob) mouse model (Example 3). The data set is classed as in vivo. The procedure:
When pharmaceutically acceptable salts of biguanide were applied in reasonable concentrations (e.g., about 0.5% to about 10%) in a suitable topical vehicle (e.g., solution, tincture, gel, lotion, cream or ointment) containing a suitable penetration enhancing agent (e.g., surfactant, DMSO, N-methyl pyrrolidone), the growth of hair was stimulated in the obese (ob/ob) mouse model.
Two alopecic female ob/ob mice were treated with 0.8% topical metformin for three months beginning at 13 months of age. Applications of 50 ul were made twice per day (except weekends) to the alopecic (intrascapular) site.

The subject of data set [8] is obese (ob/ob -Thieller background) mouse. The settings on record: 240 mg/kg/d in drinking water for 4 weeks; cited from earlier work.
Data set [9] has as its system hair loss in C57BL/6J Lep (ob) female mice. Kind of data set: Oral troglitazone ob/ob female mice study (Example 6). The data set is classed as in vivo. The settings on record: 350 days; 0.2% troglitazone in diet; control 100%. Here is the method:
This study involved oral administration of troglitazone (Rezulin®) to C57BL/6J Lep (ob) female mice.
Non-alopecic female ob/ob mice (7 weeks at start of study) are maintained on a photoperiod of 12 h light:12 h dark. Food (Purina 5001 Meal diet or Purina 5001 with 0.2% troglitazone) and water (acidified pH 2.5) are provided ad libitum.
Troglitazone (Rezulin®) is purchased from Parke-Davis (Morris Plains, NJ) in tablet form. The entire tablet (including the coat) is crushed in a blender prior to being incorporated into the diet. The amount of troglitazone added to the diet is adjusted to account for the weight of the tablet and the actual amount of the drug (400 mg/tablet) incorporated into the tablet.
The progression of hair loss is monitored by the investigator on a weekly to biweekly basis. The dorsal hair coat is photographed on a monthly basis to chart the onset and/or progression of alopecia.

Consider `N=C(N)NC(=N)N` [Biguanide, Biguanide (NH2C(═NH)NHC(═NH)NH2)], for which, in [1], the “long-term chemical stability in water” value is “limited long-term chemical stability in water” and the “solubility in water” value is on record as “water soluble”.

Turning to `CN(C)C(=N)N=C(N)N` [Metformin HCl, Metformin hydrochloride], in [2], the “penetration to the dermis as a function of pH” value is “improves as pH increases”. Moreover, in data set [2] (6 h), the absorbed through skin is less than 1% and the “percutaneous absorption (absorbed)” value is reported as less than 1%. Also, in data set [3], the “irritation to the skin” value is recorded as “no irritation”. Further, the “incidence of hair loss” value in data set [4] (300 days of age, controls about 40%) was “about 20%”. In addition, the “incidence of hair loss” value in [4] (370 days of age, excluding animals with only possible thinning of the hair coat, controls greater than 60%) is 30%. The “onset of hair loss” value in data set [4] (female ob/ob mice, 240 mg/kg/d in acid water) is “delayed”. Besides, the “incidence of spontaneous skin condition (may resemble acanthosis nigricans or migratory ichthyosis)” value in [4] (relative to control animals, the majority of which were affected) was “markedly less incidence”.

Consider `CN(C)C(=N)NC(=N)N` [Metformin base], for which the absorbed through skin in data set [2] is 75%–88%. Moreover, the “irritation to the skin” value in data set [3] is “significant irritation”.

For `CN(C)C(=N)N=C(N)N.O=C(O)c1cc2ccccc2c(Cc2c(O)c(C(=O)O)cc3ccccc23)c1O` [Metformin pamoate, metformin pamoate], in [2], the absorbed through skin is reported as less than 1% and the “penetration on addition of SR-38 to the formula” value is on record as “similarly improved”. Besides, in data set [3], the “irritation to the skin” value is given as “no irritation”.

`CCCCCCCCCCC1COC(=O)N1` (stereo not shown) [SR-38, 4-decyloxazolidin-2-one]: in data set [5], the “redness on the skin” value is “only mild, temporary redness”.

For `CN(C)C(=N)N=C(N)N` [metformin], the “onset of hair loss” value in data set [6] (female ob/ob mice, 240 mg/kg/d in drinking water) was “delayed”. Further, in data set [6] (ob/+ (heterozygous) mice, 240 mg/kg p.o.), the “hair loss in ob/+ mice” value is “not observed”. In addition, the “hair loss observed (% of animals affected)” value in data set [6] (ob/ob mice at 10 months of age (nearly 8 months of treatment), 240 mg/kg p.o., control 36%) was found to be 8%. Also, in data set [2], the “penetration of the applied metformin dose” value is reported as “up to 20%” and the “share of composition passing through the dermis” value is on record as “over 90%”. Moreover, the “pigmentation at the alopecic site (onset of anagen)” value in data set [7] (0.8% topical, 50 ul twice per day, after two months of treatment, two alopecic female ob/ob mice, 13 months of age at start) is on record as “presence of pigmentation at the alopecic site”. In addition, the “emergence of new hairs at the alopecic site” value in data set [7] (0.8% topical, the week following two months of treatment) is on record as “small hairs emerging from the skin”. Moreover, in [7] (observed for 6 weeks after the three-month treatment), the “persistence of new hairs after withdrawal of treatment” value is listed as “new hairs remained intact”. For the same molecule, in data set [8], the “concentration of hepatocyte high and low affinity insulin receptors” value is listed as “increase”; the “hypoglycemic response to exogenous insulin” value was “did not alter”; the plasma insulin levels entry is given as “lowered”.

As to `Cc1c(C)c2c(c(C)c1O)CCC(C)(COc1ccc(CC3SC(=O)NC3=O)cc1)O2` (stereo not shown) [troglitazone], the “animals exhibiting some degree of hair loss” value in data set [9] was 60%.
